Measurements reported in US20230057359A1, “NOVEL USE OF STEVIOL” (SUNTORY HOLDINGS LIMITED, priority 2019, published 2023).

Experiments:
HepG2 cells [1] = assay: Fat accumulation test in hepatocytes (oil red staining, oleic acid); assay type: cell-based; conditions: for Relative fat accumulation level (%): 0.2 mM oleic acid, 24 hours, DMSO=100%
Description: Normal human subcutaneous preadipocytes were precultured using the growth medium in the same manner as in Example 1. The cells were detached using 0.25% trypsin-EDTA, seeded at 10,000 cells/100 μL/well to a 96-well plate using a growth medium, and cultured overnight in a CO2 incubator. On the next day, the medium was replaced with 100 μL of a differentiation medium supplemented with varying concentrations of steviol (12.5, 25, 50, 100 or 200 μg/mL, dissolved in 0.1% DMSO (final concentration)). The cells were cultured for 10 days in a CO2 incubator to induce their differentiation into adipocytes. On the fourth and seventh days after the differentiation induction, the medium was replaced with a fresh medium (100 μL) having the same composition as above. A differentiation medium supplemented with 25 mM LiCl (Cat. No. SML0559, Sigma-Aldrich Co., LLC) was used as a positive control, and a differentiation medium supplemented with 0.1% DMSO (final concentration) was used as a negative control. Cells cultured in a growth medium were used as an untreated control (Untreated). The cells thus cultured were subjected to oil red staining. Specifically, the cells were washed twice with 100 μL of DPBS (Cat. No. 14190250, Thermo Fisher Scientific Inc.). Then, the cells were fixed (room temperature, 10 min) in 100 μL of a 10% formalin solution (Cat. No. 061-00416, FUJIFILM Wako Pure Chemical Corp.). The cells were washed twice with 100 μL of DPBS, then incubated for 1 minute in 100 μL of 60% 2-propanol (Cat. No. 166-04836, FUJIFILM Wako Pure Chemical Corp.) that replaced the medium, and stained for 15 minutes in 100 μL of an oil red staining solution (Cat. No. 00625, Sigma-Aldrich Co., LLC) that replaced the 2-propanol solution. The cells were washed once with 100 μL of 60% 2-propanol and washed twice with 100 μL of DPBS. Then, cell images were taken in 100 μL of DPBS. After subsequent replacement with 120 μL of 100% 2-propanol, oil red was extracted by incubation for 5 minutes, and 100 μL of the extracts was transferred to each well of a fresh 96-well plate. Absorbance (520 nm) was measured using a plate reader (VARIOSKAN FLASH, Thermo Fisher Scientific Inc.), and a relative fat accumulation level was calculated. Significant difference of differentiation non-induced group vs differentiation induced group (negative control group) was tested (two-tailed), and P<0.05 was regarded as having significant difference. Also, significant difference of negative control group vs steviol addition group/positive control group was tested (two-tailed) by the Dunnett test, and P<0.05 was regarded as having significant difference. […] HepG2 cells were precultured using the growth medium in the same manner as in Example 5. The cells were detached using 0.25% trypsin-EDTA, seeded at 30,000 cells/100 μL/well to a 96-well plate using the growth medium, and cultured overnight in a CO2 incubator. On the next day, the medium was replaced with 100 μL of a test medium (DMEM (high glucose) supplemented with 0.2 mM oleic acid (Cat. No. 03008, Sigma-Aldrich), 10% FBS and 1% penicillin-streptomycin) supplemented with varying concentrations of steviol (12.5, 25, 50, 100 or 200 μg/mL, dissolved in 0.1% DMSO (final concentration)). The cells were cultured for 24 hours in a CO2 incubator. A test medium supplemented with 2 mM metformin (Cat. No. M2009, Tokyo Chemical Industry Co., Ltd.) was used as a positive control (Metformin), and a vehicle control composed of a test medium supplemented with 0.1% DMSO (final concentration) was used as a negative control (DMSO). Cells cultured in a test medium containing no oleic acid was used as an untreated control (Untreated). The cells thus cultured were subjected to oil red staining in the same manner as in Example 3, followed by photographing and calculation of a relative fat accumulation level. […]

HepG2 cells [2] = assay: TG accumulation test in hepatocytes (Adipogenesis Assay Kit, oleic acid); assay type: cell-based; conditions: 0.2 mM oleic acid, 24 hours, DMSO=100%
Description: HepG2 cells were precultured using the growth medium in the same manner as in Example 5. The cells were detached using 0.25% trypsin-EDTA, seeded at 30,000 cells/100 μL/well to a 96-well plate using the growth medium, and cultured overnight in a CO2 incubator. On the next day, the medium was replaced with 100 μL of a test medium (DMEM (high glucose) supplemented with 0.2 mM oleic acid (Cat. No. 03008, Sigma-Aldrich), 10% FBS and 1% penicillin-streptomycin) supplemented with varying concentrations of steviol (12.5, 25, 50, 100 or 200 μg/mL, dissolved in 0.1% DMSO (final concentration)). The cells were cultured for 24 hours in a CO2 incubator. A test medium supplemented with 2 mM metformin (Cat. No. M2009, Tokyo Chemical Industry Co., Ltd.) was used as a positive control (Metformin), and a vehicle control composed of a test medium supplemented with 0.1% DMSO (final concentration) was used as a negative control (DMSO). Cells cultured in a test medium containing no oleic acid was used as an untreated control (Untreated). The cells thus cultured were subjected to oil red staining in the same manner as in Example 3, followed by photographing and calculation of a relative fat accumulation level. An intracellular triglyceride (TG) level in cells separately cultured under the same conditions as in the cells employed in the oil red staining was quantified using Adipogenesis Assay Kit (BioVision Inc.) according to the manufacturer's protocol. Absorbance (570 nm) was measured using a plate reader (VARIOSKAN FLASH, Thermo Fisher Scientific Inc.), and a relative TG level was calculated. Significant difference of untreated group vs fat accumulation induction group (negative control group) was tested (two-tailed) by the Student's t test as to the relative fat accumulation level and the relative TG level, and P<0.05 was regarded as having significant difference. Also, significant difference of negative control group vs steviol addition group/positive control group was tested (two-tailed) by the Dunnett test, and P<0.05 was regarded as having significant difference. The results of the fat accumulation test are shown in Table 6 and FIG. 6, and the results of the TG accumulation test are shown in Table 7 and FIG. 7.

C=C1C[C@@]23CC[C@H]4[C@@](C)(CCC[C@@]4(C)C(=O)O)[C@@H]2CC[C@]1(O)C3 [Steviol, steviol]
fat accumulation in HepG2 test (in words) (HepG2 cells [1]; 12.5 to 200 μg/mL): suppressed fat accumulation in adipocytes in a concentration-dependent manner | Relative fat accumulation level (%) (HepG2 cells [1]; steviol 12.5 μg/mL): 98.9% | Relative fat accumulation level (%) (HepG2 cells [1]; steviol 25 μg/mL): 98.1% | Relative fat accumulation level (%) (HepG2 cells [1]; steviol 50 μg/mL): 86.4% | Relative fat accumulation level (%) (HepG2 cells [1]; steviol 100 μg/mL): 85.6% | Relative fat accumulation level (%) (HepG2 cells [1]; steviol 200 μg/mL): 83.0% | Relative TG level (%) (HepG2 cells [2]; steviol 12.5 μg/mL): 98.8% | Relative TG level (%) (HepG2 cells [2]; steviol 25 μg/mL): 90.0% | Relative TG level (%) (HepG2 cells [2]; steviol 50 μg/mL): 93.7% | Relative TG level (%) (HepG2 cells [2]; steviol 100 μg/mL): 89.4% | Relative TG level (%) (HepG2 cells [2]; steviol 200 μg/mL): 81.4%
